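Five compound concentrations were applied to cells in 96-well plates for 48 hours; endpoints were derived by simple linear interpolation of the resulting dose-response curve. Abbreviation: GI50, concentration required for 50% inhibition of growth.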 Active and inactive are the calls of the source. Rule as the data show it: active = GI50 up to about 1.1 µM and inactive = higher.
Assays:
Experiment in all cases: NCI anticancer screen, dose series, 48 h
[1] = tested on: 786-0
[2] = tested on: A498
[3] = tested on: A549
[4] = tested on: BT-549
[5] = tested on: COLO 205
[6] = tested on: DU-145
[7] = tested on: EKVX
[8] = tested on: HL-60
[9] = tested on: HOP-62
[10] = tested on: Hs-578T
[11] = tested on: IGROV-1
[12] = tested on: KM12
[13] = tested on: MCF7
[14] = tested on: MDA-MB-231
[15] = tested on: MDA-N
[16] = tested on: NCI-H460
[17] = tested on: NCI/ADR-RES
[18] = tested on: OVCAR-8
[19] = tested on: SNB-19

## O=C(O)CC(Cc1ccc2c(c1)OCO2)C(=O)O (stereo unspecified)
[1]
  GI50: > 100 µM (inactive)
[2]
  GI50: > 100 µM (inactive)
[3]
  GI50: > 100 µM (inactive)
[4]
  GI50: > 100 µM (inactive)
[5]
  GI50: > 100 µM (inactive)
[6]
  GI50: > 100 µM (inactive)
[7]
  GI50: > 100 µM (inactive)
[8]
  GI50: > 100 µM (inactive)
[9]
  GI50: > 100 µM (inactive)
[10]
  GI50: > 100 µM (inactive)
[11]
  GI50: > 100 µM (inactive)
[12]
  GI50: > 100 µM (inactive)
[13]
  GI50: > 100 µM (inactive)
[14]
  GI50: > 100 µM (inactive)
[15]
  GI50: > 100 µM (inactive)
[16]
  GI50: > 100 µM (inactive)
[17]
  GI50: > 100 µM (inactive)
[18]
  GI50: > 100 µM (inactive)
[19]
  GI50: > 100 µM (inactive)

## COc1ccc(Oc2nc(C#CC(C)(C)O)nc(Oc3ccc(OC)cc3)n2)cc1
[2]
  GI50: 17.8 µM (inactive)
[3]
  GI50: 15.1 µM (inactive)
[4]
  GI50: 14.9 µM (inactive)
[5]
  GI50: 3.59 µM (inactive)
[6]
  GI50: 2.62 µM (inactive)
[7]
  GI50: 16 µM (inactive)
[8]
  GI50: 1.07 µM (active)
[9]
  GI50: 21.8 µM (inactive)
[10]
  GI50: 16.4 µM (inactive)
[11]
  GI50: 5.45 µM (inactive)
[12]
  GI50: 14 µM (inactive)
[13]
  GI50: 1.51 µM (inactive)
[14]
  GI50: 2.88 µM (inactive)
[15]
  GI50: 8.55 µM (inactive)
[16]
  GI50: 16.7 µM (inactive)
[17]
  GI50: 18.9 µM (inactive)
[18]
  GI50: 3.76 µM (inactive)
[19]
  GI50: 20 µM (inactive)

## O=C(/C=C/c1ccc2c(c1)OCO2)NCCc1ccco1
[3]
  GI50: 89.5 µM (inactive)
[4]
  GI50: > 100 µM (inactive)
[5]
  GI50: > 100 µM (inactive)
[6]
  GI50: > 100 µM (inactive)
[7]
  GI50: 73.3 µM (inactive)
[9]
  GI50: 83.8 µM (inactive)
[10]
  GI50: 65.3 µM (inactive)
[11]
  GI50: 19.5 µM (inactive)
[12]
  GI50: > 100 µM (inactive)
[13]
  GI50: 49.4 µM (inactive)
[14]
  GI50: 44.8 µM (inactive)
[15]
  GI50: > 100 µM (inactive)
[16]
  GI50: 69.8 µM (inactive)
[17]
  GI50: 57.3 µM (inactive)
[18]
  GI50: > 100 µM (inactive)
[19]
  GI50: > 100 µM (inactive)

## CCCNC1=Nc2ccccc2N(Cc2ccccc2)CC1
[1]
  GI50: 32.4 µM (inactive)
[2]
  GI50: 11.4 µM (inactive)
[3]
  GI50: 35.4 µM (inactive)
[4]
  GI50: 15.5 µM (inactive)
[5]
  GI50: 10.9 µM (inactive)
[6]
  GI50: 33.9 µM (inactive)
[7]
  GI50: 30.5 µM (inactive)
[8]
  GI50: 12.9 µM (inactive)
[9]
  GI50: 30.5 µM (inactive)
[10]
  GI50: 14.9 µM (inactive)
[11]
  GI50: 4.54 µM (inactive)
[12]
  GI50: 22.5 µM (inactive)
[14]
  GI50: 20.3 µM (inactive)
[15]
  GI50: 26 µM (inactive)
[16]
  GI50: 13.4 µM (inactive)
[17]
  GI50: 16.1 µM (inactive)
[18]
  GI50: 14.9 µM (inactive)
[19]
  GI50: 22.2 µM (inactive)

## S=c1[nH]nc(COc2ccc3c(c2)CCCC3)n1/N=C/c1ccc(Cl)cc1
[3]
  GI50: 18.7 µM (inactive)
[4]
  GI50: 17 µM (inactive)
[5]
  GI50: 16.6 µM (inactive)
[6]
  GI50: 15.5 µM (inactive)
[7]
  GI50: 19.1 µM (inactive)
[8]
  GI50: 18.2 µM (inactive)
[9]
  GI50: 15.9 µM (inactive)
[10]
  GI50: 21.6 µM (inactive)
[11]
  GI50: 16.4 µM (inactive)
[12]
  GI50: 16.3 µM (inactive)
[13]
  GI50: 11.8 µM (inactive)
[14]
  GI50: 24.1 µM (inactive)
[15]
  GI50: 17.7 µM (inactive)
[16]
  GI50: 15.8 µM (inactive)
[17]
  GI50: 17.6 µM (inactive)
[18]
  GI50: 16.6 µM (inactive)
[19]
  GI50: 19.5 µM (inactive)

## CCOC(=O)c1c(N)sc2c1CC(C)CC2 (stereo unspecified)
[1]
  GI50: 23.4 µM (inactive)
[3]
  GI50: 38.5 µM (inactive)
[4]
  GI50: 54.2 µM (inactive)
[5]
  GI50: 27.9 µM (inactive)
[6]
  GI50: 67.5 µM (inactive)
[7]
  GI50: 32.6 µM (inactive)
[8]
  GI50: 0.292 µM (active)
[9]
  GI50: 52.5 µM (inactive)
[10]
  GI50: 43.7 µM (inactive)
[11]
  GI50: 57.4 µM (inactive)
[12]
  GI50: 41.5 µM (inactive)
[13]
  GI50: 32.9 µM (inactive)
[14]
  GI50: 33.4 µM (inactive)
[15]
  GI50: 47.5 µM (inactive)
[16]
  GI50: 35.6 µM (inactive)
[17]
  GI50: 44.3 µM (inactive)
[18]
  GI50: 45.3 µM (inactive)
[19]
  GI50: 31 µM (inactive)

## O=C(/N=N/c1ccc(Br)cc1)NNc1ccc(Br)cc1
[2]
  GI50: 44 µM (inactive)
[4]
  GI50: > 10 µM (inactive)
[5]
  GI50: 23 µM (inactive)
[6]
  GI50: 40.8 µM (inactive)
[8]
  GI50: 14 µM (inactive)
[9]
  GI50: 16.4 µM (inactive)
[10]
  GI50: > 10 µM (inactive)
[11]
  GI50: 22.1 µM (inactive)
[12]
  GI50: 17.7 µM (inactive)
[13]
  GI50: 18.2 µM (inactive)
[14]
  GI50: 21.2 µM (inactive)
[15]
  GI50: 24.2 µM (inactive)
[16]
  GI50: 21.9 µM (inactive)
[17]
  GI50: 20 µM (inactive)
[18]
  GI50: 29.7 µM (inactive)
[19]
  GI50: 39.8 µM (inactive)

## CCOC(=O)/C=C(\N=P(c1ccccc1)(c1ccccc1)c1ccccc1)C(F)(F)C(F)(F)C(F)(F)C(F)(F)C(F)(F)F
[1]
  GI50: > 100 µM (inactive)
[2]
  GI50: 0.0675 µM (active)
[3]
  GI50: > 100 µM (inactive)
[4]
  GI50: > 100 µM (inactive)
[5]
  GI50: > 100 µM (inactive)
[6]
  GI50: > 100 µM (inactive)
[8]
  GI50: > 100 µM (inactive)
[9]
  GI50: > 100 µM (inactive)
[10]
  GI50: > 100 µM (inactive)
[11]
  GI50: > 100 µM (inactive)
[12]
  GI50: > 100 µM (inactive)
[13]
  GI50: > 100 µM (inactive)
[14]
  GI50: > 100 µM (inactive)
[15]
  GI50: > 100 µM (inactive)
[16]
  GI50: > 100 µM (inactive)
[17]
  GI50: > 100 µM (inactive)
[19]
  GI50: > 100 µM (inactive)

## CN1CCC2(CC1)C(=O)N(N1CCCCCC1)C(=O)N2c1ccccc1
[1]
  GI50: > 100 µM (inactive)
[2]
  GI50: 34.7 µM (inactive)
[3]
  GI50: > 100 µM (inactive)
[4]
  GI50: > 100 µM (inactive)
[5]
  GI50: > 100 µM (inactive)
[6]
  GI50: > 100 µM (inactive)
[7]
  GI50: > 100 µM (inactive)
[8]
  GI50: > 100 µM (inactive)
[9]
  GI50: > 100 µM (inactive)
[10]
  GI50: 42.2 µM (inactive)
[11]
  GI50: > 100 µM (inactive)
[12]
  GI50: > 100 µM (inactive)
[13]
  GI50: > 100 µM (inactive)
[14]
  GI50: > 100 µM (inactive)
[15]
  GI50: > 100 µM (inactive)
[16]
  GI50: > 100 µM (inactive)
[17]
  GI50: > 100 µM (inactive)
[18]
  GI50: 78 µM (inactive)
[19]
  GI50: > 100 µM (inactive)

## O=S(=O)(O)SCCNCCCCCC1CCCCC1
[1]
  GI50: 13.4 µM (inactive)
[2]
  GI50: 25.1 µM (inactive)
[3]
  GI50: 7.8 µM (inactive)
[4]
  GI50: 14.9 µM (inactive)
[5]
  GI50: 16.6 µM (inactive)
[6]
  GI50: 6.3 µM (inactive)
[7]
  GI50: 9.73 µM (inactive)
[8]
  GI50: 7.29 µM (inactive)
[9]
  GI50: 7.43 µM (inactive)
[10]
  GI50: 14.5 µM (inactive)
[11]
  GI50: 8.65 µM (inactive)
[12]
  GI50: 2.79 µM (inactive)
[13]
  GI50: 2.75 µM (inactive)
[14]
  GI50: 14.8 µM (inactive)
[15]
  GI50: 12.8 µM (inactive)
[16]
  GI50: 4.72 µM (inactive)
[17]
  GI50: 16.7 µM (inactive)
[18]
  GI50: 10 µM (inactive)
[19]
  GI50: 5.46 µM (inactive)

## CC(C)c1cc2c(c(O)c1O)[C@@]1(C)CCCC(C)(C)C1=C(O)C2
[1]
  GI50: 2.51 µM (inactive)
[2]
  GI50: 1.12 µM (active)
[3]
  GI50: 1.66 µM (inactive)
[4]
  GI50: 1.36 µM (inactive)
[5]
  GI50: 2.84 µM (inactive)
[6]
  GI50: 3.03 µM (inactive)
[7]
  GI50: 1.37 µM (inactive)
[8]
  GI50: 1.34 µM (inactive)
[9]
  GI50: 2.78 µM (inactive)
[10]
  GI50: 1.81 µM (inactive)
[11]
  GI50: 1.04 µM (active)
[12]
  GI50: 1.63 µM (inactive)
[13]
  GI50: 0.982 µM (active)
[14]
  GI50: > 50 µM (inactive)
[15]
  GI50: 1.77 µM (inactive)
[16]
  GI50: 1.51 µM (inactive)
[17]
  GI50: 0.809 µM (active)
[18]
  GI50: 1.54 µM (inactive)
[19]
  GI50: 2.42 µM (inactive)

From ChEMBL document CHEMBL1201862, “PubChem BioAssay data set” (2004)
